Patent US20250221405A1, “ROOT NODULE FORMATION-PROMOTING COMPOSITION, AND ROOT HAIR FORMATION-PROMOTING COMPOSITION” (KANEKA CORPORATION, priority 2022, published 2025)

Key:
[1] = test system: Japanese mustard spinach (Haru no Senbatsu); assay: Experimental Example 5: foliar application, microscopic observation of root hair; assay type: in vivo; set-up: key: those with a significant root hair increase observed were evaluated as AA; those with a root hair increase observed were evaluated as BB; those with no root hair increase observed were evaluated as CC; those with an overall or partial root hair decrease observed were evaluated as DD
Description: An observation tank formed with ½ MS agar medium (0.8% agar) was prepared in an acrylic tank. Japanese mustard spinach (Haru no Senbatsu) was seeded near the surface of the observation tank. After seeding, the Japanese mustard spinach was cultivated in an incubator set in a light period (6:00-18:00, temperature 26° C., illuminance 120 μmol/m^2·s) and a dark period (18:00-6:00, temperature 18° C.). Twelve to fourteen days after the seeding, the following liquid (a composition for promoting root hair formation) was applied on the leaf surfaces of the plant body (foliar application) so as not to drip on the agar in each of the following treatments. […] A plurality of experiments were conducted by changing the date of seeding, the date of foliar application, the date of observation, and the type of the composition for promoting root hair formation and the like. Tables 5 to 9 show the composition for promoting root hair formation, the outline of operation and the observation results of root hair.

[2] = test system: Japanese mustard spinach (Haru no Senbatsu); assay: Experimental Example 6: SF in agar medium, microscopic observation of root hair; assay type: in vivo; set-up: key: those with a significant root hair increase observed were evaluated as AA; those with a root hair increase observed were evaluated as BB; those with no root hair increase observed were evaluated as CC; those with an overall or partial root hair decrease observed were evaluated as DD; settings: Table 10, eight days after seeding
Description: An observation tank (a composition for promoting root hair formation) formed by adding 1% SF aqueous solution to ½ MS agar medium (0.8% agar) so as to obtain the following dilution factor was prepared in an acrylic tank. Japanese mustard spinach (Haru no Senbatsu) was seeded near the surface of the observation tank.
After seeding, the Japanese mustard spinach was cultivated in an incubator set in a light period (6:00-18:00, temperature 26° C., illuminance 120 μmol/m^2·s) and a dark period (18:00-6:00, temperature 18° C.).
Eight days after the seeding, the amount of root hair at a point of 1 cm from the tip of the roots was observed under a microscope (microscopic observation). In the T1 (Control), ½ MS agar medium without mixing 1% SF aqueous solution in the medium was used as the observation tank.
As a result of the observation, compared with the T1, those with a significant root hair increase observed were evaluated as AA, those with a root hair increase observed were evaluated as BB, those with no root hair increase observed were evaluated as CC, and those with an overall or partial root hair decrease observed were evaluated as DD.
A plurality of experiments were conducted by changing the date of seeding, the date of observation, and the type of the composition for promoting root hair formation and the like. […]

Substance: surfactin Na [SF]
- Observation Result (root hair) ([1]; Table 5, aqueous solution diluted 1000 times, compared with T1): BB
- Observation Result (root hair) ([1]; Table 5, aqueous solution diluted 2000 times): AA
- Observation Result (root hair) ([1]; Table 5, aqueous solution diluted 5000 times): AA
- Observation Result (root hair) ([2]; agar medium with SF diluted 5000 times): AA
- Observation Result (root hair) ([2]; agar medium with SF diluted 10000 times): BB
